The source of these data is patent US6323001A, “Increasing the trehalose content of organisms by transforming them with combinations of the structural genes for trehalose synthase” (BTG International Ltd., priority 1994, dated 2001).

In assay [1] the target is Tre6Pase activity of truncated trehalose synthase (Saccharomyces cerevisiae, UniProt P31688). Put plainly: Tre6Pase assay of truncated trehalose synthase. It is filed as biochemical, baker's yeast. The procedure:
(§1) With microbial materials, Tre6Pase and Tre6P synthase standard assays and other kinetic measurements were made as described by Londesborough & Vuorio [(1991) loc. cit.] except that the standard Tre6P synthase assay mixture contained 5 mM F6P unless stated otherwise.
Truncated trehalose synthase containing the short (57 kDa) chain and the 86 and 93 kDa long chain fragments was prepared according to the method of Londesborough & Vuorio (1991) loc. cit.] for proteolytically activated TPS/P complex. Tre6P synthase and Tre6Pase activities were assayed as described by Londesborough & Vuorio [(1991) loc. cit.]. [N-ethyl-1-^14C]-maleimide (ethyl-labelled NEM; 40 mCi/mmol) was NEC-454 from New England Nuclear. N-ethyl-[2,3-^14 C]-maleimide (ring-labelled NEM; 6 mCi/mmol) was CFA 293 from Amersham International. Both were obtained as solutions in n-pentane and the manufacturer's stated specific activities were assumed to be correct. Unlabelled N-ethyl-maleimide (NEM) was E-3876 from Sigma. It was dissolved in 25 mM HEPES pH 7.0 immediately before use and standardized by absorption measurements at 305 nm, assuming an E^mM of 0.62.
In one experiment, 2.0 μl of 2.4 mM ethyl-labelled NEM was mixed with 150 μl of gel-filtered enzyme and incubated at 23° C. Samples (10 μl) taken at various times up to 190 min were mixed with 60 μl of Laemmli sample buffer (the mercapto-ethanol in this buffer should destroy residual NEM), boiled for 5 min and subjected to SDS-PAGE. At closely similar times (and also at 23 h) other samples (10 μl) were mixed with 100 μl (for Tre6P synthase) or 700 μl (for Tre6Pase) of 5 mg BSA/ml 25 mM HEPES pH 7.0 containing 2 mM MgCl2, 1 mM EDTA, 0.2 M NaCl and 1 mM dithiothreitol (the dithiothreitol should destroy residual NEM) and assayed for Tre6P synthase and Tre6Pase.
(§2) Truncated trehalose synthase was prepared as described by Londesborough & Vuorio [(1991) loc. cit.] and contained the 57 kDa short chain and 86 and 93 kDa fragments of the long chain. Intact trehalose synthase was prepared as in Example 1. Kinetic assays were done at 30° C. as described in General Methods and Materials.

Assay [2] addresses T1, Tre6P synthase activity of intact trehalose synthase (Saccharomyces cerevisiae, UniProt Q00764).
T1 construct: Intact trehalose synthase was purified from commercial baker's yeast; made in house; host or cells: commercial baker's yeast (native enzyme purified, not recombinant)
Put plainly: Tre6P synthase assay of intact trehalose synthase. It counts as biochemical, baker's yeast. Conditions: for Tre6P synthase activity, Intact Enzyme: 10 mM G6P, 5 mM UDPG, 5 mM F6P, without phosphate = 100%; for EC50: read-out: K1/2 of activation by F6P. The procedure:
as §1
Removal of the N-terminal 325 or so amino acids from the 123 kDa long chain of intact trehalose synthase by treatment with trypsin in vitro produces an enzyme with catalytic properties like those of the truncated enzyme purified by Londesborough & Vuorio [(1991) loc. cit.]. In one experiment intact trehalose synthase (0.28 Tre6P synthase units, ≈9.4 μg) was incubated with or without 0.5 μg of trypsin at 30° C. in 250 μl of 13 mM HEPES pH 7.0 containing 1 mM MgCl2, 0.5 mM EDTA, 0.5 mM dithiothreitol, 0.2 M NaCl and 0.5 mM benzamidine. Its Tre6P synthase activity was determined at intervals using standard assay mixtures (containing 5 mM F6P) containing no or 4 mM K phosphate pH 6.8, and samples were prepared for SDS-PAGE analysis immediately before and 48 min after addition of the trypsin.
as §2

Where two headings read alike, the source gives them in different places.

T1 sequence (P31688 whole entry): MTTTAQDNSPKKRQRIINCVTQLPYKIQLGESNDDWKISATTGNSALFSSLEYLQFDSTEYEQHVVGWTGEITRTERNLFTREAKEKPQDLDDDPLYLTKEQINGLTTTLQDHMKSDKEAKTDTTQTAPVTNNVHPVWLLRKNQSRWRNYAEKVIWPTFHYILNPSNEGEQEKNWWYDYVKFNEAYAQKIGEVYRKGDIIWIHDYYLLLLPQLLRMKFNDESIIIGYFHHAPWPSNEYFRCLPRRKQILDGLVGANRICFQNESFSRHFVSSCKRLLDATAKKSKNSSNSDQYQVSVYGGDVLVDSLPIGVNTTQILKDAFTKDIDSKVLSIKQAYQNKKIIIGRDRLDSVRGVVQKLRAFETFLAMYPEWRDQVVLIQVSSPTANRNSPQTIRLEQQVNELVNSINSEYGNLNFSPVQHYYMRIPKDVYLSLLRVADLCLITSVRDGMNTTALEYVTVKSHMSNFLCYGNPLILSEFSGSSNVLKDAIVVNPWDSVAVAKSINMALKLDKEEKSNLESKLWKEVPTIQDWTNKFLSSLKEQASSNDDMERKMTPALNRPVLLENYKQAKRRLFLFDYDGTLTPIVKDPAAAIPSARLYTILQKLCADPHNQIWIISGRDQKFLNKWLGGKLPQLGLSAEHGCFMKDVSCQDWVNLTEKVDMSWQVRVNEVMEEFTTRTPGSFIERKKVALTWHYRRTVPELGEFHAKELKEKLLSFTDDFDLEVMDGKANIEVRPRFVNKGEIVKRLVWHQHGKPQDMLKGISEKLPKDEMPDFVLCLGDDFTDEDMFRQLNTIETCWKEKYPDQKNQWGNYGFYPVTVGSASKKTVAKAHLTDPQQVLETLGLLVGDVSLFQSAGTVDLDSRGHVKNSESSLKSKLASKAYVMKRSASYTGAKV
T1 sequence (P38427 whole entry, further chain): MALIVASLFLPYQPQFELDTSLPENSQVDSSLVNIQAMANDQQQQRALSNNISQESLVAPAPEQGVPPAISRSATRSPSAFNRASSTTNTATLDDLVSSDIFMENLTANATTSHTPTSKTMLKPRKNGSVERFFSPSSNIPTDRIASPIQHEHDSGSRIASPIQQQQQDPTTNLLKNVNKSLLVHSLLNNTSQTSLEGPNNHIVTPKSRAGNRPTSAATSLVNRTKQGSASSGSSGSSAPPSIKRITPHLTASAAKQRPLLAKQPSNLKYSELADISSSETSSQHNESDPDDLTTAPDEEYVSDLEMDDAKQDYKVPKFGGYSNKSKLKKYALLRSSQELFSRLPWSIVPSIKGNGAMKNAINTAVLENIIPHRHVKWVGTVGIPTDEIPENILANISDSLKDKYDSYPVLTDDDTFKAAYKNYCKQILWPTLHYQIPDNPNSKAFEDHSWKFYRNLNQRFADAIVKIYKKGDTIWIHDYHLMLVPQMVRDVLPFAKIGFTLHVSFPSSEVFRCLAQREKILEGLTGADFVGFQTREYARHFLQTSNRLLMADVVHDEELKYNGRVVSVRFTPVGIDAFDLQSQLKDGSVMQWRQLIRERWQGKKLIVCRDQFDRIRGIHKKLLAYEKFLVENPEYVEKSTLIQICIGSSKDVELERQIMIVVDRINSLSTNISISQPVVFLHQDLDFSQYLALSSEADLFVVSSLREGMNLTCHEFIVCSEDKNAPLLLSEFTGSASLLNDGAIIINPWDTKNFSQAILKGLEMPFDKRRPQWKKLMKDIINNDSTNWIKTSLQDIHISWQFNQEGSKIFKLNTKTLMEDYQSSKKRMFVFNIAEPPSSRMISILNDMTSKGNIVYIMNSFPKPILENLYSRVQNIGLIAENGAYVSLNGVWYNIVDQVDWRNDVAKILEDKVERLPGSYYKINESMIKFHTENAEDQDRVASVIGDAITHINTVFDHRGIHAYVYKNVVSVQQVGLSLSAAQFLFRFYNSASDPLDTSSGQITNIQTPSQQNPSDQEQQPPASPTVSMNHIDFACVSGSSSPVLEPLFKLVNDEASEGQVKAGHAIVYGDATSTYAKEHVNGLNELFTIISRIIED
T1 sequence (Q00764 whole entry): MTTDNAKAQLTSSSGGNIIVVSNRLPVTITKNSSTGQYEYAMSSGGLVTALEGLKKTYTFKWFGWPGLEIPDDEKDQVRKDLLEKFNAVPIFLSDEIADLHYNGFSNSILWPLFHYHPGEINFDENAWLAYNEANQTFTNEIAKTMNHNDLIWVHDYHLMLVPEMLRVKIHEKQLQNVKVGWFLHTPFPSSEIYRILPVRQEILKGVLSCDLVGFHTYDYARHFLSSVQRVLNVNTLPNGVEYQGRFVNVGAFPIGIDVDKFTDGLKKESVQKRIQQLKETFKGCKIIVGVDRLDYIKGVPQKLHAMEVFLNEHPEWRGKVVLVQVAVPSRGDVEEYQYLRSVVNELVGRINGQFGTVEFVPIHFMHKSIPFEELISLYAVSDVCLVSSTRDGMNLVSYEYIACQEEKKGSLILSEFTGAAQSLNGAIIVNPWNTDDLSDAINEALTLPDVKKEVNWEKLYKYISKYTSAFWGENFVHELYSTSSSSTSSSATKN
Chain of Tre6Pase activity of truncated trehalose synthase (P31688 whole entry, the tested form may be a part): as the sequence (P31688 whole entry) above
Chain of Tre6Pase activity of truncated trehalose synthase (Q00764 whole entry, further chain, the tested form may be a part): as the sequence (Q00764 whole entry) above
Chain of Tre6Pase activity of truncated trehalose synthase (P38427 336-1098, further chain): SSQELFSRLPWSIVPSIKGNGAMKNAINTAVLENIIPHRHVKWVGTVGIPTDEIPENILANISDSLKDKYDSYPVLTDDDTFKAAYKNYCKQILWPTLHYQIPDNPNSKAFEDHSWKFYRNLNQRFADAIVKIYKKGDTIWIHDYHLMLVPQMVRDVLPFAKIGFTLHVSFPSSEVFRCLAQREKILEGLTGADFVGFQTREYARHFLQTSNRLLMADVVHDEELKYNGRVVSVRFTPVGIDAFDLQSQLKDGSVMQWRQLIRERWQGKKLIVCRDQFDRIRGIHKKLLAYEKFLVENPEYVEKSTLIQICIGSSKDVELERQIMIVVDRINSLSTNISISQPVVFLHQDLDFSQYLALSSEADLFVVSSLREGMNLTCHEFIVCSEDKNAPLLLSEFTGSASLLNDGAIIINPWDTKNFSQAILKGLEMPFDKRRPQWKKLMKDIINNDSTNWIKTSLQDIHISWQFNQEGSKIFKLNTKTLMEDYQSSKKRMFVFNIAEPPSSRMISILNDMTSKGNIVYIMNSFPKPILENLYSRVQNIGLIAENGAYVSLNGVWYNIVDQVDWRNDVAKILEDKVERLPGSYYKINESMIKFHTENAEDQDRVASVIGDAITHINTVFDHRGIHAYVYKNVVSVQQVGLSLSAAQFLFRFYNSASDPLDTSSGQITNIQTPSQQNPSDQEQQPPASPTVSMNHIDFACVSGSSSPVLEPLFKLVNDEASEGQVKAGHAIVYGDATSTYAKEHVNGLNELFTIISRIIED

As for `O=P(O)(O)O` [phosphate, K phosphate], in assay [1] (initial rates, truncated enzyme, read-out: K1/2 of activation of Tre6Pase by phosphate), the EC50 was 3 mM. The “Tre6P synthase activity, Intact Enzyme” value in assay [2] (1.3 mM added K phosphate pH 6.8) is 69%; in assay [2] (4.0 mM added K phosphate pH 6.8), 14%.
Consider `O=C(CO)[C@@H](O)[C@H](O)[C@H](O)COP(=O)(O)O` [Transformant F6P, Fructose 6-phosphate], for which the inhibition at 5000 µM in assay [1] (read-out: inhibition of Tre6Pase activity, 5 mM F6P, saturating phosphate concentrations, truncated enzyme) was in the range of 10 to 15%; in assay [1] (read-out: inhibition of Tre6Pase activity, 5 mM F6P, sub-optimal phosphate concentrations, truncated enzyme), 20 to 30%. For the same compound, the values for the EC50 in assay [2] (1.3 mM phosphate) and in assay [2] (no added phosphate) were 1400 µM and 60 µM, respectively.
